Reference: PubChem BioAssay AID256 (DTP/NCI, 2004)
Toxic doses and inconclusive results are not listed. Rule for the calls: active = survival T/C of 150% or more; inactive = T/C below 125% in these data.

Test system: CD2F1 mice, L1210 leukemia ip, survival T/C
Experiment: NCI In Vivo Anticancer Drug Screen. Data for tumor model L1210 Leukemia (intraperitoneal) in CD2F1 (CDF1) mice
Details: higher = longer survival
How it was run: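 Compound-dosed mice with transplantable tumor versus matched vehicle controls; endpoint ratio T/C reported.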

[1] = endpoint: mean survival time, dose: 100.0 mg/kg/injection, schedule: Q01DX001 (ip), vehicle: saline with Tween-80
[2] = endpoint: mean survival time, dose: 100.0 mg/kg/injection, schedule: Q04DX002 (ip), vehicle: saline with Tween-80
[3] = endpoint: mean survival time, dose: 200.0 mg/kg/injection, schedule: Q01DX001 (ip), vehicle: saline with Tween-80
[4] = endpoint: mean survival time, dose: 200.0 mg/kg/injection, schedule: Q04DX002 (ip), vehicle: saline with Tween-80
[5] = endpoint: mean survival time, dose: 400.0 mg/kg/injection, schedule: Q01DX001 (ip), vehicle: saline with Tween-80
[6] = endpoint: mean survival time, dose: 25.0 mg/kg/injection, schedule: Q04DX002 (ip), vehicle: saline with Tween-80
[7] = endpoint: mean survival time, dose: 50.0 mg/kg/injection, schedule: Q04DX002 (ip), vehicle: saline with Tween-80
[8] = endpoint: mean survival time, dose: 100.0 mg/kg/injection, schedule: Q01DX001 (ip), vehicle: saline
[9] = endpoint: mean survival time, dose: 400.0 mg/kg/injection, schedule: Q01DX001 (ip), vehicle: saline
[10] = endpoint: mean survival time, dose: 100.0 mg/kg/injection, schedule: Q01DX001 (ip), vehicle: Klucel (hydroxypropylcellulose) (HPC)
[11] = endpoint: mean survival time, dose: 200.0 mg/kg/injection, schedule: Q01DX001 (ip), vehicle: Klucel (hydroxypropylcellulose) (HPC)
[12] = endpoint: mean survival time, dose: 100.0 mg/kg/injection, schedule: Q01DX009 (ip), vehicle: saline with Tween-80
[13] = endpoint: mean survival time, dose: 200.0 mg/kg/injection, schedule: Q01DX001 (ip), vehicle: saline
[14] = endpoint: mean survival time, dose: 200.0 mg/kg/injection, schedule: Q01DX009 (ip), vehicle: saline with Tween-80
[15] = endpoint: mean survival time, dose: 100.0 mg/kg/injection, schedule: Q04DX003 (ip), vehicle: saline with Tween-80
[16] = endpoint: mean survival time, dose: 200.0 mg/kg/injection, schedule: Q04DX003 (ip), vehicle: saline with Tween-80
[17] = endpoint: mean survival time, dose: 400.0 mg/kg/injection, schedule: Q01DX009 (ip), vehicle: saline with Tween-80
[18] = endpoint: mean survival time, dose: 400.0 mg/kg/injection, schedule: Q04DX003 (ip), vehicle: saline with Tween-80
[19] = endpoint: mean survival time, dose: 50.0 mg/kg/injection, schedule: Q01DX009 (ip), vehicle: Klucel (hydroxypropylcellulose) (HPC)

Measured: T/C

O=S(=O)(O)c1cccnc1
inactive: endpoint: mean survival time, dose: 100.0 mg/kg/injection, schedule: Q04DX002 (ip), vehicle: saline 94 % of control | endpoint: mean survival time, dose: 200.0 mg/kg/injection, schedule: Q04DX002 (ip), vehicle: saline 94 % of control | endpoint: mean survival time, dose: 400.0 mg/kg/injection, schedule: Q04DX002 (ip), vehicle: saline 97 % of control

COc1ccccc1N=Nc1c(O)n(-c2ccc(Cl)cc2)c(=S)n(-c2ccccc2)c1=O
inactive: [1] 97 % of control | [2] 98 % of control | [3] 97 % of control | [4] 94 % of control | [5] 103 % of control | endpoint: mean survival time, dose: 400.0 mg/kg/injection, schedule: Q04DX002 (ip), vehicle: saline with Tween-80 102 % of control

CN1C(=O)C2CCC1C(O)C2 (stereo not drawn)
inactive: [6] 98 % of control | [7] 106 % of control | [2] 98 % of control | [4] 95 % of control

C=C(C(=O)O)C(N)C(=O)O (stereo not drawn)
inactive: endpoint: median survival time, dose: 25.0 mg/kg/injection, schedule: Q01DX009 (ip), vehicle: suspension in saline 96 % of control | endpoint: median survival time, dose: 50.0 mg/kg/injection, schedule: Q01DX009 (ip), vehicle: suspension in saline 108 % of control | endpoint: median survival time, dose: 100.0 mg/kg/injection, schedule: Q01DX009 (ip), vehicle: suspension in saline 103 % of control | endpoint: median survival time, dose: 200.0 mg/kg/injection, schedule: Q01DX009 (ip), vehicle: suspension in saline 94 % of control | endpoint: median survival time, dose: 400.0 mg/kg/injection, schedule: Q01DX009 (ip), vehicle: suspension in saline 91 % of control

O=P(O)(O)OP(=O)(O)O.[NH-]CC[NH-].[NH-]CC[NH-].[Pd+2].[Pd+2]
inactive: endpoint: mean survival time, dose: 3.13 mg/kg/injection, schedule: Q04DX003 (ip), vehicle: distilled water + Tween-80 98 % of control | endpoint: mean survival time, dose: 6.25 mg/kg/injection, schedule: Q04DX003 (ip), vehicle: distilled water + Tween-80 93 % of control | endpoint: mean survival time, dose: 12.5 mg/kg/injection, schedule: Q04DX003 (ip), vehicle: distilled water + Tween-80 87 % of control | endpoint: mean survival time, dose: 25.0 mg/kg/injection, schedule: Q04DX003 (ip), vehicle: distilled water + Tween-80 96 % of control | endpoint: mean survival time, dose: 50.0 mg/kg/injection, schedule: Q04DX003 (ip), vehicle: distilled water + Tween-80 100 % of control | endpoint: mean survival time, dose: 100.0 mg/kg/injection, schedule: Q04DX003 (ip), vehicle: distilled water + Tween-80 105 % of control

COC(=O)C(N)CSCc1ccccc1 (stereo not drawn)
inactive: [8] 100 % of control | endpoint: mean survival time, dose: 100.0 mg/kg/injection, schedule: Q01DX009 (ip), vehicle: saline 102 % of control | endpoint: mean survival time, dose: 200.0 mg/kg/injection, schedule: Q01DX009 (ip), vehicle: saline 97 % of control | [9] 100 % of control | endpoint: mean survival time, dose: 400.0 mg/kg/injection, schedule: Q01DX009 (ip), vehicle: saline 98 % of control

CC(C)C(Nc1sc([N+](=O)[O-])cc1[N+](=O)[O-])C(=O)O (stereo not drawn)
inactive: [1] 90 % of control | [3] 102 % of control | [5] 107 % of control

CCCCCCCCCCC[n+]1ccc(C#N)cc1
inactive: endpoint: mean survival time, dose: 9.38 mg/kg/injection, schedule: Q01DX001 (ip), vehicle: saline 105 % of control | endpoint: mean survival time, dose: 18.75 mg/kg/injection, schedule: Q01DX001 (ip), vehicle: saline 98 % of control

C#CCOC(=O)NC1CCCCC1
inactive: endpoint: mean survival time, dose: 100.0 mg/kg/injection, schedule: Q04DX003 (ip), vehicle: Klucel (hydroxypropylcellulose) (HPC) 104 % of control | endpoint: mean survival time, dose: 200.0 mg/kg/injection, schedule: Q04DX003 (ip), vehicle: Klucel (hydroxypropylcellulose) (HPC) 105 % of control | endpoint: mean survival time, dose: 400.0 mg/kg/injection, schedule: Q04DX003 (ip), vehicle: Klucel (hydroxypropylcellulose) (HPC) 102 % of control

CCOC(=O)c1c(C)cc(C)cc1C
inactive: endpoint: mean survival time, dose: 50.0 mg/kg/injection, schedule: Q01DX001 (ip), vehicle: Klucel (hydroxypropylcellulose) (HPC) 99 % of control | [10] 102 % of control | [11] 96 % of control

CC(=O)Nc1ccc(/C=N\NC(=O)CNC(=O)Nc2ccc(F)cc2)cc1
inactive: endpoint: mean survival time, dose: 50.0 mg/kg/injection, schedule: Q01DX009 (ip), vehicle: saline with Tween-80 96 % of control | [12] 96 % of control

CC(CCC(=O)O)(c1cc(Br)c(O)c(Br)c1)c1cc(Br)c(O)c(Br)c1
inactive: endpoint: mean survival time, dose: 100.0 mg/kg/injection, schedule: Q01DX009 (ip), vehicle: other 96 % of control | endpoint: mean survival time, dose: 200.0 mg/kg/injection, schedule: Q01DX009 (ip), vehicle: other 102 % of control | endpoint: mean survival time, dose: 400.0 mg/kg/injection, schedule: Q01DX009 (ip), vehicle: other 101 % of control

Nc1ccc(C(=O)Nc2ccc(S(=O)(=O)F)cc2)cc1
inactive: [8] 100 % of control | [13] 96 % of control | [9] 102 % of control

COc1cccc(/C=C/C(=O)O)c1OC
inactive: endpoint: mean survival time, dose: 25.0 mg/kg/injection, schedule: Q01DX009 (ip), vehicle: water 88 % of control | endpoint: mean survival time, dose: 50.0 mg/kg/injection, schedule: Q01DX009 (ip), vehicle: water 88 % of control | endpoint: mean survival time, dose: 100.0 mg/kg/injection, schedule: Q01DX009 (ip), vehicle: water 101 % of control | endpoint: mean survival time, dose: 200.0 mg/kg/injection, schedule: Q01DX009 (ip), vehicle: water 95 % of control | endpoint: mean survival time, dose: 400.0 mg/kg/injection, schedule: Q01DX009 (ip), vehicle: water 95 % of control

N#CCSc1nc(N)nc2nc[nH]c12
inactive: [12] 103 % of control | endpoint: mean survival time, dose: 100.0 mg/kg/injection, schedule: Q04DX003 (ip), vehicle: saline sonified 102 % of control | [14] 116 % of control | endpoint: mean survival time, dose: 200.0 mg/kg/injection, schedule: Q04DX003 (ip), vehicle: saline sonified 105 % of control | endpoint: mean survival time, dose: 400.0 mg/kg/injection, schedule: Q04DX003 (ip), vehicle: saline sonified 107 % of control

C1CCC(CCC2CCCC[N-]2)[N-]C1.[I][Zn][I] (stereo not drawn)
inactive: endpoint: mean survival time, dose: 25.0 mg/kg/injection, schedule: Q01DX001 (ip), vehicle: saline with Tween-80 107 % of control | endpoint: mean survival time, dose: 50.0 mg/kg/injection, schedule: Q01DX001 (ip), vehicle: saline with Tween-80 86 % of control | [1] 86 % of control | [8] 103 % of control | [13] 100 % of control

ClC1(Cl)C2(Cl)C3(Cl)C4(Cl)C(Cl)(Cl)C5(Cl)C3(Cl)C1(Cl)C5(Cl)C24Cl (stereo not drawn)
inactive: [12] 97 % of control | [15] 103 % of control | [14] 102 % of control | [16] 94 % of control | [17] 100 % of control | [18] 96 % of control

CCN(CC)Cc1cc(Nc2cc(C)nc(/N=C(\N)Nc3cc(Cl)cc(Cl)c3)n2)ccc1O
inactive: endpoint: mean survival time, dose: 12.5 mg/kg/injection, schedule: Q01DX009 (ip), vehicle: Klucel (hydroxypropylcellulose) (HPC) 93 % of control | endpoint: mean survival time, dose: 25.0 mg/kg/injection, schedule: Q01DX009 (ip), vehicle: Klucel (hydroxypropylcellulose) (HPC) 102 % of control | [6] 97 % of control | [19] 105 % of control | [7] 94 % of control | [10] 95 % of control | [2] 94 % of control | [11] 115 % of control

C=CCNS(=O)(=O)c1ccc(C)cc1
inactive: [12] 93 % of control | [15] 98 % of control | [14] 100 % of control | [16] 98 % of control | [17] 90 % of control | [18] 94 % of control

C=CCN1CCCC1=O
inactive: [12] 100 % of control | [14] 102 % of control | [17] 102 % of control

COc1ccc(NC(=O)Oc2ccccc2F)c(Cl)c1
inactive: [19] 96 % of control | endpoint: mean survival time, dose: 100.0 mg/kg/injection, schedule: Q01DX009 (ip), vehicle: Klucel (hydroxypropylcellulose) (HPC) 107 % of control | endpoint: mean survival time, dose: 200.0 mg/kg/injection, schedule: Q01DX009 (ip), vehicle: Klucel (hydroxypropylcellulose) (HPC) 104 % of control

CCCCCNC(=O)Nc1cccc(Cl)c1C
inactive: [12] 94 % of control | [15] 88 % of control | [14] 92 % of control | [16] 92 % of control | [18] 92 % of control

CCC1(O)C(=O)OCc2c1cc1n(c2=O)Cc2cc3ccc(C(F)(F)F)cc3nc2-1 (stereo not drawn)
inactive: endpoint: median survival time, dose: 10.0 mg/kg/injection, schedule: Q04DX002 (ip), vehicle: saline with Tween-80 103 % of control | endpoint: median survival time, dose: 20.0 mg/kg/injection, schedule: Q04DX002 (ip), vehicle: saline with Tween-80 100 % of control | endpoint: median survival time, dose: 40.0 mg/kg/injection, schedule: Q04DX002 (ip), vehicle: saline with Tween-80 104 % of control | endpoint: median survival time, dose: 80.0 mg/kg/injection, schedule: Q04DX002 (ip), vehicle: saline with Tween-80 104 % of control
